What was measured:
Type in all cases: in vivo
Chenopodium album [1] = assay: Test Example 1 upland field foliage treatment; conditions: Table 4, upland field foliage treatment, index 0-5
How it was run: (§1)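 A leaf-surface application at an active-ingredient rate of 1 kg per hectare was made to 14-day-old plants in upland soil. Evaluation followed 21 days later using a six-grade scale, where grade 5 means at least 90% kill or phytotoxicity.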

Digitaria adscendens [2] = assay: Test Example 1 upland field foliage treatment; conditions: Table 4, upland field foliage treatment, index 0-5
How it was run: as §1

Setaria viridis [3] = assay: Test Example 1 upland field foliage treatment; conditions: Table 4, upland field foliage treatment, index 0-5
How it was run: as §1

Stellaria media [4] = assay: Test Example 1 upland field foliage treatment; conditions: Table 4, upland field foliage treatment, index 0-5
How it was run: as §1

soybean (Glycine max) [5] = assay: Test Example 1 upland field foliage treatment, crop phytotoxicity; conditions: Table 4, upland field foliage treatment, index 0-5
How it was run: as §1

[6] = system: wheat (Triticum aestivum); assay: as above; conditions: Table 4, upland field foliage treatment, index 0-5
How it was run: as §1

Chenopodium album [7] = assay: Test Example 2 upland soil treatment; conditions: Table 5, upland soil treatment, index 0-5
How it was run: (§2)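 Dose of 1 kg active ingredient per hectare, given as diluted wettable powder to the soil surface the day after sowing in upland soil (~1 cm cover). Effect rated 21 days on: 5 for ≥90%, 4 for 70–<90%, down to 0 for <10%.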

Digitaria adscendens [8] = assay: Test Example 2 upland soil treatment; conditions: Table 5, upland soil treatment, index 0-5
How it was run: as §2

Setaria viridis [9] = assay: Test Example 2 upland soil treatment; conditions: Table 5, upland soil treatment, index 0-5
How it was run: as §2

Stellaria media [10] = assay: Test Example 2 upland soil treatment; conditions: Table 5, upland soil treatment, index 0-5
How it was run: as §2

soybean (Glycine max) [11] = assay: Test Example 2 upland soil treatment, crop phytotoxicity; conditions: Table 5, upland soil treatment, index 0-5
How it was run: as §2

[12] = system: wheat (Triticum aestivum); assay: as above; conditions: Table 5, upland soil treatment, index 0-5
How it was run: as §2

Ammannia multiflora = assay: Test Example 3 paddy field treatment; conditions: paddy field treatment, wettable powder, active ingredient 1 kg per hectare, 21st day after the dropping, index 0-5
How it was run: (§3)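 Scoring used a 0–5 scale of herbicidal effect or phytotoxicity, from <10% to ≥90%, taken 21 days after treatment. Treatment was 1 kg a.i./ha as diluted wettable powder dripped onto 4 cm-deep flooded pots sown with the weeds, 10 days after transplanting two-leaf Koshihikari rice.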

Echinochloa crusgalli = assay: Test Example 3 paddy field treatment; conditions: paddy field treatment, wettable powder, active ingredient 1 kg per hectare, 21st day after the dropping, index 0-5
How it was run: as §3

Monochoria vaginalis = assay: Test Example 3 paddy field treatment; conditions: paddy field treatment, wettable powder, active ingredient 1 kg per hectare, 21st day after the dropping, index 0-5
How it was run: as §3

Scirpus juncoides = assay: Test Example 3 paddy field treatment; conditions: paddy field treatment, wettable powder, active ingredient 1 kg per hectare, 21st day after the dropping, index 0-5
How it was run: as §3

Rice (Oryza sativa) = assay: Test Example 3 paddy field treatment, crop phytotoxicity; conditions: paddy field treatment, transplanted rice Koshihikari, wettable powder, active ingredient 1 kg per hectare, 21st day after the dropping, index 0-5
How it was run: as §3

Row | Structure (SMILES) | Herbicidal activity CA: Chenopodium album (Chenopodium album [1]) | Herbicidal activity DA: Digitaria adscendens (Digitaria adscendens [2]) | Herbicidal activity SV: Setaria viridis (Setaria viridis [3]) | Herbicidal activity SM: Stellaria media (Stellaria media [4]) | Herbicidal activity (phytotoxicity) GM: Soybean (Glycine max) (soybean (Glycine max) [5]) | Herbicidal activity (phytotoxicity) TA: Wheat (Triticum aestivum) [6] | Herbicidal activity CA: Chenopodium album (Chenopodium album [7]) | Herbicidal activity DA: Digitaria adscendens (Digitaria adscendens [8]) | Herbicidal activity SV: Setaria viridis (Setaria viridis [9]) | Herbicidal activity SM: Stellaria media (Stellaria media [10]) | Herbicidal activity (phytotoxicity) GM: Soybean (Glycine max) (soybean (Glycine max) [11]) | Herbicidal activity (phytotoxicity) TA: Wheat (Triticum aestivum) [12] | Herbicidal activity AM (Ammannia multiflora) | Herbicidal activity EC (Echinochloa crusgalli) | Herbicidal activity MV (Monochoria vaginalis) | Herbicidal activity SJ (Scirpus juncoides) | Herbicidal activity OS (phytotoxicity to rice) (Rice (Oryza sativa))
1 | CON=C(Cn1cc(C)c(-c2ccccc2)n1)C(=O)NC1CC1 [Compound 21, 2-methoxyimino-3-(phenyl-4-methyl-pyrazole)-1-yl-propanoic acid-N-cyclopropylamide] | 5 (herbicidal effect of not less than 90%, or phytotoxicity of 90% or more) | 5 (herbicidal effect of not less than 90%, or phytotoxicity of 90% or more) | 5 (herbicidal effect of not less than 90%, or phytotoxicity of 90% or more) | 5 (herbicidal effect of not less than 90%, or phytotoxicity of 90% or more) | 0 (herbicidal effect of not less than 0% and less than 10%, or phytotoxicity of 0% or more and less than 10%) | 0 (herbicidal effect of not less than 0% and less than 10%, or phytotoxicity of 0% or more and less than 10%) | 5 (herbicidal effect of not less than 90%, or phytotoxicity of 90% or more) | 4 (herbicidal effect of not less than 70% and less than 90%, or phytotoxicity of 70% or more and less than 90%) | 4 (herbicidal effect of not less than 70% and less than 90%, or phytotoxicity of 70% or more and less than 90%) | 5 (herbicidal effect of not less than 90%, or phytotoxicity of 90% or more) | 0 (herbicidal effect of not less than 0% and less than 10%, or phytotoxicity of 0% or more and less than 10%) | 0 (herbicidal effect of not less than 0% and less than 10%, or phytotoxicity of 0% or more and less than 10%) | 5 (herbicidal effect of not less than 90%, or phytotoxicity of 90% or more) | 5 (herbicidal effect of not less than 90%, or phytotoxicity of 90% or more) | 5 (herbicidal effect of not less than 90%, or phytotoxicity of 90% or more) | 5 (herbicidal effect of not less than 90%, or phytotoxicity of 90% or more) | 0 (herbicidal effect of not less than 0% and less than 10%, or phytotoxicity of 0% or more and less than 10%)
2 | CON=C(Cn1cc(C)c(-c2ccccc2)n1)C(=O)NC1CCCC1 [Compound 23] | 4 (herbicidal effect of not less than 70% and less than 90%, or phytotoxicity of 70% or more and less than 90%) | 3 (herbicidal effect of not less than 50% and less than 70%, or phytotoxicity of 50% or more and less than 70%) | 3 (herbicidal effect of not less than 50% and less than 70%, or phytotoxicity of 50% or more and less than 70%) | 4 (herbicidal effect of not less than 70% and less than 90%, or phytotoxicity of 70% or more and less than 90%) | 0 (herbicidal effect of not less than 0% and less than 10%, or phytotoxicity of 0% or more and less than 10%) | 0 (herbicidal effect of not less than 0% and less than 10%, or phytotoxicity of 0% or more and less than 10%) | 5 (herbicidal effect of not less than 90%, or phytotoxicity of 90% or more) | 4 (herbicidal effect of not less than 70% and less than 90%, or phytotoxicity of 70% or more and less than 90%) | 4 (herbicidal effect of not less than 70% and less than 90%, or phytotoxicity of 70% or more and less than 90%) | 4 (herbicidal effect of not less than 70% and less than 90%, or phytotoxicity of 70% or more and less than 90%) | 0 (herbicidal effect of not less than 0% and less than 10%, or phytotoxicity of 0% or more and less than 10%) | 0 (herbicidal effect of not less than 0% and less than 10%, or phytotoxicity of 0% or more and less than 10%) | 5 (herbicidal effect of not less than 90%, or phytotoxicity of 90% or more) | 4 (herbicidal effect of not less than 70% and less than 90%, or phytotoxicity of 70% or more and less than 90%) | 5 (herbicidal effect of not less than 90%, or phytotoxicity of 90% or more) | 4 (herbicidal effect of not less than 70% and less than 90%, or phytotoxicity of 70% or more and less than 90%) | 0 (herbicidal effect of not less than 0% and less than 10%, or phytotoxicity of 0% or more and less than 10%)
3 | CON=C(Cn1cc(C)c(-c2ccccc2)n1)C(=O)NC1CCCCC1 [Compound 24] | 4 (herbicidal effect of not less than 70% and less than 90%, or phytotoxicity of 70% or more and less than 90%) | 3 (herbicidal effect of not less than 50% and less than 70%, or phytotoxicity of 50% or more and less than 70%) | 4 (herbicidal effect of not less than 70% and less than 90%, or phytotoxicity of 70% or more and less than 90%) | 4 (herbicidal effect of not less than 70% and less than 90%, or phytotoxicity of 70% or more and less than 90%) | 0 (herbicidal effect of not less than 0% and less than 10%, or phytotoxicity of 0% or more and less than 10%) | 0 (herbicidal effect of not less than 0% and less than 10%, or phytotoxicity of 0% or more and less than 10%) | 5 (herbicidal effect of not less than 90%, or phytotoxicity of 90% or more) | 3 (herbicidal effect of not less than 50% and less than 70%, or phytotoxicity of 50% or more and less than 70%) | 4 (herbicidal effect of not less than 70% and less than 90%, or phytotoxicity of 70% or more and less than 90%) | 4 (herbicidal effect of not less than 70% and less than 90%, or phytotoxicity of 70% or more and less than 90%) | 0 (herbicidal effect of not less than 0% and less than 10%, or phytotoxicity of 0% or more and less than 10%) | 0 (herbicidal effect of not less than 0% and less than 10%, or phytotoxicity of 0% or more and less than 10%) | 4 (herbicidal effect of not less than 70% and less than 90%, or phytotoxicity of 70% or more and less than 90%) | 4 (herbicidal effect of not less than 70% and less than 90%, or phytotoxicity of 70% or more and less than 90%) | 5 (herbicidal effect of not less than 90%, or phytotoxicity of 90% or more) | 4 (herbicidal effect of not less than 70% and less than 90%, or phytotoxicity of 70% or more and less than 90%) | 0 (herbicidal effect of not less than 0% and less than 10%, or phytotoxicity of 0% or more and less than 10%)

Source: patent US7192906B2, “Substituted pyrazole derivatives, production process thereof, and herbicide compositions containing the derivatives” (SDS Biotech K.K., priority 2001, dated 2007)
